Experimental data as given in ChEMBL document CHEMBL1128989, “-Methanesulfonyl-L-valine as a novel, unnatural amino acid surrogate for P2 in the design of HIV protease inhibitors” (Bioorg Med Chem Lett, 1996).

Columns and labels:
[1] = system: Human immunodeficiency virus 1; experiment: Antiviral activity against PBMC infected with Human immunodeficiency virus type 1 NL4-3 isolate.; type: functional
[2] = Ratio of IC50/Ki was determined
[3] = target: Human immunodeficiency virus type 1 protease (Human immunodeficiency virus 1, UniProt Q72874); experiment: Inhibitory activity against P2 site in HIV protease.

Structure (SMILES)	CIC IC50 [1] [nM]	Ratio [2]	Ki [3] [nM]
CC(C)(C)NC(=O)[C@@H]1C[C@@H]2CCCC[C@@H]2CN1C[C@@H](O)[C@H](Cc1ccccc1)NC(=O)[C@@H](NC(=O)c1ccc2ccccc2n1)C(C)(C)S(C)(=O)=O	4.9	28	0.172
CC(C)(C)NC(=O)[C@@H]1C[C@@H]2CCCC[C@@H]2CN1C[C@@H](O)[C@H](Cc1ccccc1)NC(=O)[C@H](CC(N)=O)NC(=O)c1ccc2ccccc2n1	23	–	–
CSC(C)(C)[C@H](NC(=O)c1ccc2ccccc2n1)C(=O)N[C@@H](Cc1ccccc1)[C@H](O)CN1C[C@H]2CCCC[C@H]2C[C@H]1C(=O)NC(C)(C)C	27	10	2.59
CC(C)[C@H](NC(=O)c1ccc2ccccc2n1)C(=O)N[C@@H](Cc1ccccc1)[C@H](O)CN1C[C@H]2CCCC[C@H]2C[C@H]1C(=O)NC(C)(C)C	54	98	0.55
CC(C)(C)NC(=O)[C@@H]1C[C@@H]2CCCC[C@@H]2CN1C[C@@H](O)[C@H](Cc1ccccc1)NC(=O)[C@@H](NC(=O)OCc1ccccc1)C(C)(C)S(C)(=O)=O	11	68	0.162
CC(C)(C)NC(=O)[C@@H]1C[C@@H]2CCCC[C@@H]2CN1C[C@@H](O)[C@H](Cc1ccccc1)NC(=O)[C@H](CS(C)(=O)=O)NC(=O)c1ccc2ccccc2n1	22	195	0.113
